Assays:
[1] = Intestinal mucosal permeation using Caco-2 cell monolayers; conditions: human; for Papp A→B at 2 h, 5 µM / Papp B→A at 2 h, 5 µM / efflux ratio at 2 h, 5 μM: Caco-2, pH 7.4
Description: Plate was returned to incubator.
Vortexed for 5 minutes. […] Incubated at 37° C. for 30 minutes.

[2] = Liver microsomes stability, rat; conditions: rat liver microsomes, 60 min
Description: (§1) 40 μL of 10 mM NADPH solution was added to each well. The final concentration of NADPH was 1 mM. The negative control samples were prepared by replacing NADPH with 40 μL of ultra-pure H2O. Samples were prepared in duplicate. Negative controls were prepared in singlet.
(§2) This study was performed in duplicate.
(§3) LC/MS analysis was performed for all samples from this study using a Shimadzu liquid chromatograph separation system equipped with degasser DGU-20A5R; solvent delivery unit LC-30AD; system controller SIL-30AC; column oven CTO-30A; CTC Analytics HTC PAL System. Mass spectrometric analysis was performed using a Triple Quad™ 5500 instrument.
(§4) All calculations were carried out using Microsoft Excel.
(§5) All calculations were carried out using Microsoft Excel. Peak areas were determined from extracted ion chromatograms.

[3] = Liver microsomes stability, mouse; conditions: mouse liver microsomes, 60 min
Description: as §1, §2, §3, §4, §5

[4] = Liver microsomes stability, human; conditions: human liver microsomes, without cofactors, 60 min
Description: as §1, §2, §3, §4, §5

Plasma stability, rat = assay type: in vitro ADME
Description: (§6) • a. […] The final concentration of organic solvents was 0.5%. The assay was performed in duplicated. • b.
as §4

human 5-HT2A receptor = human 5-HT2A receptor (Homo sapiens, UniProt P28223); experiment: Human 5-HT2A radioligand binding assay ([3H]-ketanserin)
human 5-HT2A receptor, sequence (P28223 whole entry): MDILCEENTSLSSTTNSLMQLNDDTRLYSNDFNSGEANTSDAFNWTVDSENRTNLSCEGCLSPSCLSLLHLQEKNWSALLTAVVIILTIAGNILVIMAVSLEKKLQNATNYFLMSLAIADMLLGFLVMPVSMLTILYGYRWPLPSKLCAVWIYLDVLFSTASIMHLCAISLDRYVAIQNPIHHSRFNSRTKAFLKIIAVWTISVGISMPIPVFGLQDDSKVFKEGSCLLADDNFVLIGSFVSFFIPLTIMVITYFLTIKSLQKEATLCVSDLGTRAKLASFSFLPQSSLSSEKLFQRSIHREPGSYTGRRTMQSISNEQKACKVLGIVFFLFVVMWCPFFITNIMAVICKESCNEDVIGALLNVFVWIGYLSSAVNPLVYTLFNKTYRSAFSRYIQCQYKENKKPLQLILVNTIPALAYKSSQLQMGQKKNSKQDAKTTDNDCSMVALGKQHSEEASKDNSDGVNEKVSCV
Description: The objective of this study was to evaluate the binding properties of exemplary compounds of Formula I on 5-hydroxytryptamine receptor 2A (5-HT2A).
• 1. The assay buffer was prepared following the table below.
• 2. 8 doses of reference and test compounds starting from 10 mM stock solution as required was prepared by 5-fold serial dilutions with 100% (v/v) DMSO. • 3. UniFilter-96 GF/B plate was pretreated: • i. 50 μl/well of 0.5% (v/v) PEI was added to […]. The plates were sealed and incubated at […] for 3 hrs. • ii. After incubation, the plates were washed 3 times with ice-cold wash buffer (50 mM Tris, pH7.4). • 4. The assay plate was prepared: • i. Cell membrane was diluted with assay buffer and 330 μl/well was added to 96 round deep well plates to reach a concentration of 20 μg/well. • ii. 8 concentrations of reference or test compounds were prepared and 110 μl/well was added to 96 round deep well plates. • iii. [3H]-ketanserin was diluted with assay buffer to 5 nM (5×final concentration) and 110 μl/well was added to 96 round deep well plates. • 5. The plate was centrifuged at 1000 rpm for 30 secs and then agitated at 600 rpm, R.T. for 5 min. • 6. The plates were sealed and the plate incubated at 279C for 90 min. • 7. The incubation was stopped by vacuum filtration onto GF/B filter plates followed by 4 times washing with ice-cold wash buffer (50 mM Tris, pH7.4). • 8. The plates were dried at 379C for 45 min. • 8. The filter plates were sealed and 40 μl/well of scintillation cocktail was added. • 10. The plate was read by using a Microbeta^2 microplate counter.
• 1. For reference and test compounds, the results were expressed as % Inhibition, using the normalization equation: N=100−100×(U−C2)/(C1−C2), where U is the unknown value, C1 is the average of high controls, and C2 is the average of low controls. • 2. The IC50 was determined by fitting percentage of inhibition as a function of compound concentrations with Hill equation using XLfit.

Plasma stability, mouse = assay type: in vitro ADME
Description: as §6, §4

Plasma stability, human = assay type: in vitro ADME
Description: as §6, §4

[5] = Caco-2, pH 7.4, Percentage recovery (%) A→B, Caco-2, A→B
[6] = Caco-2, pH 7.4, Percentage recovery (%) B→A, Caco-2, B→A
[7] = 37° C., N.A. = no peak detected at 30 min

COc1cc2nc(N3CCN(C(=O)c4ccco4)CC3)nc(N)c2cc1OC [Prazosin]
Papp A→B at 2 h, 5 µM [1]: 10.1 ×10⁻⁶ cm/s
Papp B→A at 2 h, 5 µM [1]: 33.1 ×10⁻⁶ cm/s
efflux ratio at 2 h, 5 μM [1]: 3.28
recovery at 2 h, 5 μM [1, 5]: 79.5%
recovery at 2 h, 5 μM [1, 6]: 105%

O=C(O)Cc1ccccc1Nc1c(Cl)cccc1Cl [Diclofenac, reference compound]
Remaining Percentage (%) after 60 min, Rat, With cofactors ([2]; with cofactors): 7.11%
Remaining Percentage (%) after 60 min, Rat, Without cofactors ([2]; without cofactors): 97.86%
Remaining Percentage (%) after 60 min, Mouse, With cofactors ([3]; with cofactors): 35.94%
Remaining Percentage (%) after 60 min, Mouse, Without cofactors ([3]; without cofactors): 97.86%
Remaining Percentage (%) after 60 min, Human, Without cofactors [4]: 95.90%

CC[C@H](C)C(=O)O[C@H]1C[C@@H](C)C=C2C=C[C@H](C)[C@H](CC[C@@H]3C[C@@H](O)CC(=O)O3)[C@H]21 [Lovastatin, reference compound]
Remaining Percentage (%) 0 min (Plasma stability, rat; 0 min): 100.00%
Remaining Percentage (%) 30 min (Plasma stability, rat; 30 min): 0.00%
Remaining Percentage (%) 60 min (Plasma stability, rat; 60 min): 0.00%
Remaining Percentage (%) 120 min (Plasma stability, rat; 120 min): 0.00%
Remaining Percentage (%) 180 min (Plasma stability, rat; 180 min): 0.00%
Remaining Percentage (%) 240 min (Plasma stability, rat; 240 min): 0.00%

CN(C)CCc1c[nH]c2cccc(OP(=O)(O)O)c12 [Psilocybin, 4-phosphoryloxy-N,N-dimethyltrypatmine]
Papp A→B at 2 h, 5 µM [1]: 0.06 ×10⁻⁶ cm/s
Papp B→A at 2 h, 5 µM [1]: 0.03 ×10⁻⁶ cm/s
efflux ratio at 2 h, 5 μM [1]: 0.45
recovery at 2 h, 5 μM [1, 5]: 41.4%
recovery at 2 h, 5 μM [1, 6]: 104%
IC50 (human 5-HT2A receptor): 4.25 µM

CC(C)[N+](C)(CCOC(=O)C1c2ccccc2Oc2ccccc21)C(C)C [Propantheline, reference compound]
Remaining Percentage (%) 0 min (Plasma stability, mouse; 0 min): 100.00%
half-life at 5 μM (Plasma stability, mouse; [7]): 34.4 min
Remaining Percentage (%) 30 min (Plasma stability, mouse; 30 min): 65.32%
Remaining Percentage (%) 60 min (Plasma stability, mouse; 60 min): 32.49%
Remaining Percentage (%) 120 min (Plasma stability, mouse; 120 min): 9.12%
Remaining Percentage (%) 180 min (Plasma stability, mouse; 180 min): 2.90%
Remaining Percentage (%) 240 min (Plasma stability, mouse; 240 min): 0.87%
Remaining Percentage (%) 0 min (Plasma stability, human; 0 min): 100.00%
half-life at 5 μM (Plasma stability, human; [7]): 9.53 min
Remaining Percentage (%) 30 min (Plasma stability, human; 30 min): 18.68%
Remaining Percentage (%) 60 min (Plasma stability, human; 60 min): 1.28%

CC(C)NCC(O)COc1cccc2ccccc12 (stereo not shown) [Propranolol]
Papp A→B at 2 h, 5 µM [1]: 33.5 ×10⁻⁶ cm/s
Papp B→A at 2 h, 5 µM [1]: 23.1 ×10⁻⁶ cm/s
efflux ratio at 2 h, 5 μM [1]: 0.69
recovery at 2 h, 5 μM [1, 5]: 91.3%
recovery at 2 h, 5 μM [1, 6]: 92.6%

C[C@H]1O[C@@H](O[C@H]2[C@@H](O)C[C@H](O[C@H]3[C@@H](O)C[C@H](O[C@H]4CC[C@@]5(C)[C@H](CC[C@@H]6[C@@H]5C[C@@H](O)[C@]5(C)[C@@H](C7=CC(=O)OC7)CC[C@]65O)C4)O[C@@H]3C)O[C@@H]2C)C[C@H](O)[C@@H]1O [Digoxin]
Papp A→B at 2 h, 5 µM [1]: 0.53 ×10⁻⁶ cm/s
Papp B→A at 2 h, 5 µM [1]: 18.9 ×10⁻⁶ cm/s
efflux ratio at 2 h, 5 μM [1]: 35.4
recovery at 2 h, 5 μM [1, 5]: 86.6%
recovery at 2 h, 5 μM [1, 6]: 104%

Reference: patent US20260274876A1, “3-PYRROLIDINE-INDOLE DIMERS AS SEROTONERGIC AGENTS USEFUL FOR THE TREATMENT OF DISORDERS RELATED THERETO” (MINDSET PHARMA INC., priority 2022, published 2026)
